The source of these data is patent US20240390340A1 (INCYTE CORPORATION, priority 2023, published 2024).

Broadly, the IC50 is the midpoint of a concentration-inhibition curve.

Like-named read-outs stand apart in the source and are kept apart here.

In test [1] the target is KRAS G12D (Homo sapiens, UniProt P01116, G12D). Kind of test: GDP-GTP exchange assay (bodipy-GDP/GppNHp, SOS1), KRAS G12D. The test is classed as biochemical.
For test [2], the target named is KRAS G12V (Homo sapiens, UniProt P01116, G12V). Kind of test: GDP-GTP exchange assay (bodipy-GDP/GppNHp, SOS1), KRAS G12V. The test is classed as biochemical.
Setting [3] is: bodipy-loaded KRAS G12D 2.5 nM, 4 h pre-incubation, value for the most potent isomer quoted for certain compounds, read-out: G12D (KRAS G12D exchange assay IC50).
Where [4] appears, read: KRAS G12V mutant, value for the most potent isomer quoted for certain compounds, read-out: G12V (KRAS G12V exchange assay IC50).

Sequence of KRAS G12V (P01116 1-188 isoform P01116-2 G12V): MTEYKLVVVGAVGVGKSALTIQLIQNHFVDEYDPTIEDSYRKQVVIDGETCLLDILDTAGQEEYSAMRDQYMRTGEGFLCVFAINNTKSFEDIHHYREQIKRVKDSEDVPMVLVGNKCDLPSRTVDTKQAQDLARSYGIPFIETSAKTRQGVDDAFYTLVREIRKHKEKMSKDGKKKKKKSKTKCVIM
Sequence of KRAS G12D (P01116 1-188 isoform P01116-2 G12D): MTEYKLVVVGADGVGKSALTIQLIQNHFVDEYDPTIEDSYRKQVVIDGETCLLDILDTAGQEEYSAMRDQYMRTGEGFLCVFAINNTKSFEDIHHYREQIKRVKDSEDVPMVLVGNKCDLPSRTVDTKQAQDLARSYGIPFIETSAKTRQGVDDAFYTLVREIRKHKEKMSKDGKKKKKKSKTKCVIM

Consider `Cc1nc2c(F)c(-c3cccc(Cl)c3Cl)c(CCC#N)cc2c2c1cc([C@H]1C[C@H](n3cc(C4(CF)CC4)nn3)CN1C(=O)C1CC1)n2[C@H]1[C@H]2CN[C@@H]1C2` [Example 381], for which the IC50 in test [1] (setting [3]) and in test [2] (setting [4]) was at most 100 nM throughout.
Take `Cc1nc2c(F)c(-c3cccc(Cl)c3Cl)c(CCC#N)cc2c2c1cc([C@H]1C[C@H](Oc3ccc(N)nc3)CN1C(=O)C1CC1)n2[C@H]1[C@H]2CN[C@@H]1C2` [Example 296]: the IC50 in test [1] (setting [3]) and in test [2] (setting [4]) was at most 100 nM in each case.
Regarding `CC(C)(O)c1ccc(-c2nc3c(F)c(-c4cccc(Cl)c4Cl)c(CCC#N)cc3c3c2cc([C@H]2C[C@H](OCc4c(F)cccc4F)CN2C(=O)C2CC2)n3[C@H]2[C@H]3CN[C@@H]2C3)cn1` [Example 158], the IC50 in test [1] (setting [3]) and in test [2] (setting [4]) was at most 100 nM in each case.
As for `Cc1nc2c(F)c(-c3cccc(Cl)c3Cl)c(CCC#N)cc2c2c1cc([C@H]1C[C@H](Oc3ccn(CC(F)(F)F)n3)CN1C(=O)C1CC1)n2[C@H]1[C@H]2CN[C@@H]1C2` [Example 411], the IC50 in test [1] (setting [3]) and in test [2] (setting [4]) was at most 100 nM throughout.
Consider `Cc1nc2c(F)c(-c3cccc(Cl)c3Cl)c(CCC#N)cc2c2c1cc([C@H]1C[C@H](Oc3ccc4ccccc4n3)CN1C(=O)C1CC1)n2[C@H]1[C@H]2CN[C@@H]1C2` [Example 121], for which the half-maximal inhibitory concentration (IC50) in test [1] (setting [3]) and in test [2] (setting [4]) was at most 100 nM each time.
With `Cc1nc2c(F)c(-c3cccc(Cl)c3Cl)c(CCC#N)cc2c2c1cc([C@H]1C[C@H](OCc3cnsc3)CN1C(=O)C1CC1)n2[C@H]1[C@H]2CN[C@@H]1C2` [Example 110], the IC50 in test [1] (setting [3]) and in test [2] (setting [4]) was at most 100 nM each time.
With `Cc1nc2c(F)c(-c3cccc(Cl)c3Cl)c(CCC#N)cc2c2c1cc([C@H]1C[C@H](OCc3ccc(F)cc3)CN1C(=O)C1CC1)n2[C@H]1[C@H]2CN[C@@H]1C2` [Example 251], the IC50 in test [1] (setting [3]) and in test [2] (setting [4]) was at most 100 nM in each case.
For `Cc1nc2c(F)c(-c3cccc(Cl)c3Cl)c(CCC#N)cc2c2c1cc([C@H]1C[C@H](Oc3ccnn3C)CN1C(=O)C1CC1)n2[C@H]1[C@H]2CN[C@@H]1C2` [Example 175], the IC50 in test [1] (setting [3]) and in test [2] (setting [4]) was at most 100 nM throughout.
In the case of `Cc1nc2c(F)c(-c3cccc(Cl)c3Cl)c(CCC#N)cc2c2c1cc([C@H]1C[C@H](n3cc(C(C)N4CCOC4=O)nn3)CN1C(=O)C1CC1)n2[C@H]1[C@H]2CN[C@@H]1C2` (stereo partly shown) [Example 325], the IC50 in test [1] (setting [3]) and in test [2] (setting [4]) was at most 100 nM in each case.
`Cc1nc2c(F)c(-c3cccc(Cl)c3Cl)c(CCC#N)cc2c2c1cc([C@H]1C[C@H](OC(C)c3ccccc3)CN1C(=O)C1CC1)n2[C@H]1[C@H]2CN[C@@H]1C2` (stereo partly shown) [Example 93]: the IC50 in test [1] (setting [3]) and in test [2] (setting [4]) was at most 100 nM throughout.
Turning to `Cc1nc2c(F)c(-c3cccc(Cl)c3Cl)c(CCC#N)cc2c2c1cc([C@H]1C[C@H](n3ccc(N)n3)CN1C(=O)C1CC1)n2[C@H]1[C@H]2CN[C@@H]1C2` [Example 319], the half-inhibitory concentration (IC50) in test [1] (setting [3]) and in test [2] (setting [4]) was at most 100 nM throughout.
Take `Cc1nc2c(F)c(-c3cccc(Cl)c3Cl)c(CCC#N)cc2c2c1cc([C@H]1C[C@H](OC(F)(F)c3ccccc3)CN1C(=O)C1CC1)n2[C@H]1[C@H]2CN[C@@H]1C2` [Example 79, 3-(1-((1R,4R,5S)-2-Azabicyclo[2.1.1]hexan-5-yl)-2-((2R,4S)-1-(cyclopropanecarbonyl)-4-(difluoro(phenyl)methoxy)pyrrolidin-2-yl)-7-(2,3-dichlorophenyl)-6-fluoro-4-methyl-1H-pyrrolo[3,2-c]quinolin-8-yl)propanenitrile]: the IC50 in test [1] (Table H, column G12D, for compounds isolated as several atropisomers/diastereoisomers the value for the most potent isomer is quoted, read-out: KRAS G12D exchange assay IC50) is at most 100 nM; in test [2] (Table H, column G12V, for compounds isolated as several atropisomers/diastereoisomers the value for the most potent isomer is quoted, read-out: KRAS G12V exchange assay IC50), at most 100 nM.
On to `Cc1nc2c(F)c(-c3cccc(Cl)c3Cl)c(CCC#N)cc2c2c1cc([C@H]1C[C@H](OCC3CCCC3)CN1C(=O)C1CC1)n2[C@H]1[C@H]2CN[C@@H]1C2` [Example 153], for which the IC50 in test [1] (setting [3]) and in test [2] (setting [4]) was at most 100 nM throughout.
`Cc1nc2c(F)c(-c3cccc(Cl)c3Cl)c(CCC#N)cc2c2c1cc([C@H]1C[C@H](n3cc(C4(C)CCC4)nn3)CN1C(=O)C1CC1)n2[C@H]1[C@H]2CN[C@@H]1C2` [Example 384]: the IC50 in test [1] (setting [3]) and in test [2] (setting [4]) was at most 100 nM each time.
With `CC(O)c1nc2c(F)c(-c3cccc(Cl)c3Cl)c(CCC#N)cc2c2c1cc([C@H]1C[C@H](OCc3ccc(F)cc3C#N)CN1C(=O)C1CC1)n2[C@H]1[C@H]2CN[C@@H]1C2` (stereo partly shown) [Example 178], the IC50 in test [1] (setting [3]) and in test [2] (setting [4]) was at most 100 nM each time.
For `Cc1nc2c(F)c(-c3cccc(Cl)c3Cl)c(CCC#N)cc2c2c1cc([C@H]1C[C@H](Oc3cc(N4CC(OC(F)F)C4)ccn3)CN1C(=O)C1CC1)n2[C@H]1[C@H]2CN[C@@H]1C2` [Example 369], the IC50 in test [1] (setting [3]) and in test [2] (setting [4]) was at most 100 nM in each case.
As to `Cc1nc2c(F)c(-c3cccc(Cl)c3Cl)c(CCC#N)cc2c2c1cc([C@H]1C[C@H](Oc3cnccn3)CN1C(=O)C1CC1)n2[C@H]1[C@H]2CN[C@@H]1C2` [Example 137], the IC50 in test [1] (setting [3]) and in test [2] (setting [4]) was at most 100 nM each time.
As for `Cc1nc2c(F)c(-c3cccc(Cl)c3Cl)c(CCC#N)cc2c2c1cc([C@H]1C[C@H](Oc3cncnc3)CN1C(=O)C1CC1)n2[C@H]1[C@H]2CN[C@@H]1C2` [Example 136], the 50% inhibitory concentration (IC50) in test [1] (setting [3]) and in test [2] (setting [4]) was at most 100 nM throughout.
For the compound `COC(=O)c1ncn([C@H]2C[C@H](c3cc4c(C)nc5c(F)c(-c6cccc(Cl)c6Cl)c(CCC#N)cc5c4n3[C@H]3[C@H]4CN[C@@H]3C4)N(C(=O)C3CC3)C2)n1` [Example 348], the IC50 in test [1] (setting [3]) and in test [2] (setting [4]) was at most 100 nM each time.
Turning to `COc1ccnc(O[C@H]2C[C@H](c3cc4c(C)nc5c(F)c(-c6cccc(Cl)c6Cl)c(CCC#N)cc5c4n3[C@H]3[C@H]4CN[C@@H]3C4)N(C(=O)C3CC3)C2)c1` [Example 328], the IC50 in test [1] (setting [3]) and in test [2] (setting [4]) was at most 100 nM throughout.
As for `Cc1nc2c(F)c(-c3cccc(Cl)c3Cl)c(CCC#N)cc2c2c1cc([C@H]1C[C@H](OCc3ccnc(C(F)(F)F)c3)CN1C(=O)C1CC1)n2[C@H]1[C@H]2CN[C@@H]1C2` [Example 259], the IC50 in test [1] (setting [3]) and in test [2] (setting [4]) was at most 100 nM each time.
On to `Cc1nc2c(F)c(-c3cccc(Cl)c3Cl)c(CCC#N)cc2c2c1cc([C@H]1C[C@H](n3cc(C4(C)CCCC4)nn3)CN1C(=O)C1CC1)n2[C@H]1[C@H]2CN[C@@H]1C2` [Example 386], for which the IC50 in test [1] (setting [3]) and in test [2] (setting [4]) was at most 100 nM each time.
`Cc1nnn([C@H]2C[C@H](c3cc4c(C)nc5c(F)c(-c6cccc(Cl)c6Cl)c(CCC#N)cc5c4n3[C@H]3[C@H]4CN[C@@H]3C4)N(C(=O)C3CC3)C2)n1` [Example 398]: the IC50 in test [1] (setting [3]) and in test [2] (setting [4]) was at most 100 nM in each case.
Regarding `Cc1nc2c(F)c(-c3cccc(Cl)c3Cl)c(CCC#N)cc2c2c1cc([C@H]1C[C@H](OCc3c(F)cccc3C#N)CN1C(=O)C1CC1)n2[C@H]1[C@H]2CN[C@@H]1C2` [Example 126], the IC50 in test [1] (setting [3]) and in test [2] (setting [4]) was at most 100 nM each time.
For `Cc1nc2c(F)c(-c3cccc(Cl)c3Cl)c(CCC#N)cc2c2c1cc([C@H]1C[C@H](OCc3cnn(C(F)(F)F)c3)CN1C(=O)C1CC1)n2[C@H]1[C@H]2CN[C@@H]1C2` [Example 311], the IC50 in test [1] (setting [3]) and in test [2] (setting [4]) was at most 100 nM in each case.
Regarding `Cc1nc2c(F)c(-c3cccc(Cl)c3Cl)c(CCC#N)cc2c2c1cc([C@H]1C[C@H](n3cc(C4CC4)cn3)CN1C(=O)C1CC1)n2[C@H]1[C@H]2CN[C@@H]1C2` [Example 429], the IC50 in test [1] (setting [3]) and in test [2] (setting [4]) was at most 100 nM each time.
Regarding `Cc1nc2c(F)c(-c3cccc(Cl)c3Cl)c(CCC#N)cc2c2c1cc([C@H]1C[C@H](OCc3cnn(C)n3)CN1C(=O)C1CC1)n2[C@H]1[C@H]2CN[C@@H]1C2` [Example 105], the IC50 in test [1] (setting [3]) and in test [2] (setting [4]) was at most 100 nM each time.
On to `Cc1nc2c(F)c(-c3cccc(Cl)c3Cl)c(CCC#N)cc2c2c1cc([C@H]1C[C@H](n3cc(C#N)nn3)CN1C(=O)C1CC1)n2[C@H]1[C@H]2CN[C@@H]1C2` [Example 345], for which the IC50 in test [1] (setting [3]) and in test [2] (setting [4]) was at most 100 nM in each case.
`Cc1nc2c(F)c(-c3cccc(Cl)c3Cl)c(CCC#N)cc2c2c1cc([C@H]1C[C@H](OCC3(C#N)CCC3)CN1C(=O)C1CC1)n2[C@H]1[C@H]2CN[C@@H]1C2` [Example 339]: the IC50 in test [1] (setting [3]) and in test [2] (setting [4]) was at most 100 nM throughout.
For `Cc1nc2c(F)c(-c3cccc(Cl)c3Cl)c(CCC#N)cc2c2c1cc([C@H]1C[C@H](OCc3ccc(C#N)cc3)CN1C(=O)C1CC1)n2[C@H]1[C@H]2CN[C@@H]1C2` [Example 152], the IC50 in test [1] (setting [3]) and in test [2] (setting [4]) was at most 100 nM each time.
Regarding `Cc1cc(C)n([C@H]2C[C@H](c3cc4c(C)nc5c(F)c(-c6cccc(Cl)c6Cl)c(CCC#N)cc5c4n3[C@H]3[C@H]4CN[C@@H]3C4)N(C(=O)C3CC3)C2)n1` [Example 355], the IC50 in test [1] (setting [3]) and in test [2] (setting [4]) was at most 100 nM each time.
`Cc1nc2c(F)c(-c3cccc(Cl)c3Cl)c(CCC#N)cc2c2c1cc([C@H]1C[C@H](Oc3cc(C(F)(F)F)[nH]n3)CN1C(=O)C1CC1)n2[C@H]1[C@H]2CN[C@@H]1C2` [Example 409]: the IC50 in test [1] (setting [3]) and in test [2] (setting [4]) was at most 100 nM in each case.
In the case of `Cc1nc2c(F)c(-c3cccc(Cl)c3Cl)c(CCC#N)cc2c2c1cc([C@H]1C[C@H](OCc3cccc(C(=O)O)c3)CN1C(=O)C1CC1)n2[C@H]1[C@H]2CN[C@@H]1C2` [Example 165], the IC50 in test [1] (setting [3]) and in test [2] (setting [4]) was at most 100 nM throughout.
For `Cc1nc2c(F)c(-c3cccc(Cl)c3Cl)c(CCC#N)cc2c2c1cc([C@H]1C[C@H](Oc3ccccc3F)CN1C(=O)C1CC1)n2[C@H]1[C@H]2CN[C@@H]1C2` [Example 119], the IC50 in test [1] (setting [3]) and in test [2] (setting [4]) was at most 100 nM in each case.
Turning to `Cc1nc2c(F)c(-c3cccc(Cl)c3Cl)c(CCC#N)cc2c2c1cc([C@H]1C[C@H](Oc3ccn(C)c(=O)c3)CN1C(=O)C1CC1)n2[C@H]1[C@H]2CN[C@@H]1C2` [Example 419], the 50% inhibitory concentration (IC50) in test [1] (setting [3]) and in test [2] (setting [4]) was at most 100 nM each time.
